How the values were obtained:
LX-1 lung, sensitive = test: In vitro cytotoxicity (MTS assay), LX-1; type: cell-based; details: Homo sapiens; LX-1, 72 h
Experimental: (§1) In vitro cytotoxicity was assessed in human carcinoma cells by the MTS (3-(4,5-dimethylthiazol-2-yl)-5-(3-carboxymethoxyphenyl)-2-(4-sulphenyl)-2H-tetrazolium, inner salt) assay (5). Cells were plated at 4,000 cell/well in 96 well microtiter plates and 24 hours later drugs were added and serial diluted. The cells were incubated at 37° form 72 hours at which time the tetrazolium dye, MTS at 333 μg/ml (final concentration),in combination with the electron coupling agent phenazine methosulfate at 25 μM (final concentration) was added. A dehydrogenase enzyme in live cells reduces the MTS to a form that absorbs light at 492 nm which can be quantitated spectrophotometrically. The greater the absorbance the greater the number of live cells. The results are expressed as an IC50, which is the drug concentration required to inhibit cell proliferation (i.e. absorbance at 492 nm) to 50% of that of untreated control cells.

A2780 cells = test: Apoptosis determination (TUNEL assay), A2780; type: cell-based, human; details: for % of A2780 Cells in Apoptosis: 24 h treatment; for induction of apoptosis: (A2780)
Experimental: (§2) Cells were plated, incubated overnight, treated with compound for 24 hours then harvested by trypsinization. For cell cycle analysis cells were trypsinized, permeated, stained with 50 ug/ml propidium iodide and analyzed by FACS. For apoptosis evaluation (TUNEL assay) cells were permeated and reacted with TdT and fluoresceinated dUTP for 3 hours following the procedure recommended by the APO-Direct kit (Pharmingen).

[1] = test system: HCT116/Topo colon, resistant to etoposide; test: In vitro cytotoxicity (MTS assay), HCT116/Topo; type: cell-based; details: Homo sapiens, HCT-116, 72 h
Experimental: as §1

A2780 ovarian, parental = test: In vitro cytotoxicity (MTS assay), A2780; type: cell-based; details: Homo sapiens, A2780, 72 h
Experimental: as §1

[2] = test system: MCF-7 breast, estradiol sensitive; test: In vitro cytotoxicity (MTS assay), MCF-7; type: cell-based; details: Homo sapiens, MCF7; MCF-7, 72 h
Experimental: as §1

[3] = test system: SKBR3 breast, estradiol-independent; test: In vitro cytotoxicity (MTS assay), SKBR3; type: cell-based; details: Homo sapiens, SK-BR-3; SKBR3, 72 h
Experimental: as §1

[4] = test system: A2780/DDP ovarian, mutp53/bcl2+; test: In vitro cytotoxicity (MTS assay), A2780/DDP; type: cell-based; details: Homo sapiens, 72 h
Experimental: as §1

[5] = test system: A2780/Tax ovarian, Taxol resistant; test: In vitro cytotoxicity (MTS assay), A2780/Tax; type: cell-based; details: Homo sapiens, 72 h
Experimental: as §1

LNCaP cells = test: Apoptosis determination (TUNEL assay), LNCaP; type: cell-based, human; details: for % of LNCaP Cells in Apoptosis: 24 h treatment; for induction of apoptosis: testosterone sensitive (LNCaP) cells
Experimental: as §2

[6] = test system: HCT116/mdr+ colon, overexpresses Mdr+; test: In vitro cytotoxicity (MTS assay), HCT116/mdr+; type: cell-based; details: Homo sapiens, HCT-116, 72 h
Experimental: as §1

HCT116 colon, parental = test: In vitro cytotoxicity (MTS assay), HCT116; type: cell-based; details: Homo sapiens, HCT-116; HCT116, 72 h
Experimental: as §1

human tumor cell lines = test: In vitro cytotoxicity against several human tumor cell lines; type: cell-based
Experimental: as §1

[7] = test system: PC3 prostate, testosterone independent; test: In vitro cytotoxicity (MTS assay), PC3; type: cell-based; details: Homo sapiens; PC3, 72 h
Experimental: as §1

[8] = test system: LNCaP prostate, testosterone sensitive; test: In vitro cytotoxicity (MTS assay), LNCaP; type: cell-based, human; details: for IC50: Homo sapiens, LNCaP, 72 h
Experimental: as §1

Solubility = type: physicochemical
[9] = test system: tubulin or topoisomerase II; test: Mechanism of action: tubulin or topoisomerase II
p53, mdr or bcl2 = test: Mechanism of action: mediation by p53, mdr or bcl2; type: cell-based

SMILES | IC50 (LX-1 lung, sensitive) | % of A2780 Cells in Apoptosis (A2780 cells; 0.1 x 72 hour cytotoxic IC50) | % of A2780 Cells in Apoptosis (A2780 cells; 1 x 72 hour cytotoxic IC50) | % of A2780 Cells in Apoptosis (A2780 cells; 5 x 72 hour cytotoxic IC50) | % of A2780 Cells in Apoptosis (A2780 cells; 10 x 72 hour cytotoxic IC50) | % of A2780 Cells in Apoptosis (A2780 cells; 20 x 72 hour cytotoxic IC50) | induction of apoptosis (A2780 cells) | IC50 [1] | IC50 (A2780 ovarian, parental) | IC50 [2] | IC50 [3] | IC50 [4] | IC50 [5] | % of LNCaP Cells in Apoptosis (LNCaP cells; 0.1 x 72 hour cytotoxic IC50) | % of LNCaP Cells in Apoptosis (LNCaP cells; 1 x 72 hour cytotoxic IC50) | % of LNCaP Cells in Apoptosis (LNCaP cells; 5 x 72 hour cytotoxic IC50) | % of LNCaP Cells in Apoptosis (LNCaP cells; 10 x 72 hour cytotoxic IC50) | % of LNCaP Cells in Apoptosis (LNCaP cells; 20 x 72 hour cytotoxic IC50) | induction of apoptosis (LNCaP cells) | IC50 [6] | further results
CC1(C)C=Cc2c(ccc3c4c([nH]c23)C(C)(C)C2CC35CCCN3C(=O)C2(C4)NC5=O)O1 (stereo not shown) [Stephacidin A] | 4220 nM | 1% | .8% | 21% | 14% | 15% | potent inducers of apoptosis | 13100 nM | 4000 nM | 4200 nM | 2150 nM | 6800 nM | 3600 nM | 0.02% | 0.00% | 0.15% | 5.75% | 11.81% | potent inducers of apoptosis | 6700 nM | IC50 (HCT116 colon, parental): 2100 nM; in vivo criteria for acceptable activity (human tumor cell lines; potency judged against applicant's criteria): within our in vivo criteria for acceptable activity; fold less potent (human tumor cell lines; relative potency in vitro, versus the other stephacidin): 10 fold; in vitro cytotoxicity (human tumor cell lines; several human tumor cell lines (Table 3)): potent in vitro cytotoxicity; IC50 [7]: 2100 nM; IC50 [8]: 1000 nM
CC1(C)C=Cc2c(ccc3c2[N+]([O-])=C2C(C)(C)C4CC56CCCN5C(=O)C4(NC6=O)C4N5C(=O)C67CCCN6C(=O)C56C(C7)C(C)(C)c5c(c7ccc8c(c7n5O)C=CC(C)(C)O8)C6C234)O1 (stereo not shown) [Stephacidin B] | 380 nM | .5% | .2% | 1.0% | 33% | 5% | potent inducers of apoptosis | 420 nM | 330 nM | 270 nM | 320 nM | 430 nM | 260 nM | 0.02% | 0.00% | 0.05% | 4.52% | 11.13% | potent inducers of apoptosis | 460 nM | Solubility (Solubility; hexane): insoluble; Solubility (Solubility; methanol, chloroform, acetone, acetonitrile, dimethyl sulfoxide, acetonitrile/methanol (1:1)): Soluble; Solubility (Solubility; water): insoluble; tubulin or topoisomerase II mediated [9]: not tubulin or topoisomerase II mediated; IC50 (HCT116 colon, parental): 460 nM; effects mediated by p53, mdr or bcl2 (p53, mdr or bcl2): not mediated by p53, mdr or bcl2; IC50 [7]: 370 nM; IC50 [8]: 60 nM; selectivity in testosterone dependent LNCaP cells ([8]; LNCaP versus other cell lines): Good selectivity

— patent publication US6291461A, “Stephacidin antitumor antibiotics” (Bristol-Myers Squibb Company, priority 1999, dated 2001)
